Data reported in ChEMBL document CHEMBL1201862, “PubChem BioAssay data set” (2004).
Calls of active or inactive are those of the source. Unless noted, no cut-off for these calls is given here.

How the values were obtained:
[1] = biological target: T1, Short transient receptor potential channel 4 (Mus musculus, UniProt Q9QUQ5); test: SAR Analysis for the identification of selective inhibits of the transient receptor potential cation channel C4 (TRPC4): Automated Electrophysiology. [Related pubchem assays (depositor defined):AID2256]; assay type: functional
T1 sequence (Q9QUQ5 whole entry): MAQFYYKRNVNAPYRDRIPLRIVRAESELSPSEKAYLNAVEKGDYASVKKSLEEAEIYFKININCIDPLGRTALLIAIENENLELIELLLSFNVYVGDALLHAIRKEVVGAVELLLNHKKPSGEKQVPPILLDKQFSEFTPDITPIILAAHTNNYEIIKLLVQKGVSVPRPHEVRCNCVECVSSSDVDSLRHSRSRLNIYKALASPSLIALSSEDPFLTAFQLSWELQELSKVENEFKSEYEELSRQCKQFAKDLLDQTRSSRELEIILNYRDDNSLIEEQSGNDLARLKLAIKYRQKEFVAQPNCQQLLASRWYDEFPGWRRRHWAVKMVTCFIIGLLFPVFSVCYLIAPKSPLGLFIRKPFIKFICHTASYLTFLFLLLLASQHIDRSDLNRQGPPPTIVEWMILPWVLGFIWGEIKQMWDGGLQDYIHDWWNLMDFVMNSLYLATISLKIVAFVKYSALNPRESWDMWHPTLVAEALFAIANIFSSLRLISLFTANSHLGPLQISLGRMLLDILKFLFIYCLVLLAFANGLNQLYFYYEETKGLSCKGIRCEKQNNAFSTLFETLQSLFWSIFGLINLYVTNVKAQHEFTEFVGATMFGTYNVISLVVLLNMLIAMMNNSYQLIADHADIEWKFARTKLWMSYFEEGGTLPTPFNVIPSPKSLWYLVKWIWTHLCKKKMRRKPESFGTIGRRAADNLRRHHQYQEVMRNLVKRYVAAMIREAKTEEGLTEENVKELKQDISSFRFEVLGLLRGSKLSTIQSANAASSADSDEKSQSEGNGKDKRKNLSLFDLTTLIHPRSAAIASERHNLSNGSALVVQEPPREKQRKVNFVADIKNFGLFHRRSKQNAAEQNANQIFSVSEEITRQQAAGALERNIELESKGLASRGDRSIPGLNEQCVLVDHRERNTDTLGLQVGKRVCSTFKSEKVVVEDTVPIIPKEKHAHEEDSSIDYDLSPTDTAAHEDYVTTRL

[2] = biological target: T1, Short transient receptor potential channel 4; test: TRPC4 inhibition under acetylcholine activation, SAR follow-up, cell-based, acetylcholine stimulus, HEK293 TRPC4, Fluo-4 (AID 492996); assay type: functional
[3] = biological target: T1, Short transient receptor potential channel 4; test: SAR Analysis for the identification of selective inhibitors of the transient receptor potential cation channel C4 (TRPC4): TRPC4 Serotonin Receptor CRC MPD assay. [Related pubchem assays (depositor defined):AID2247, AID2256]; assay type: functional
[4] = biological target: T1, Short transient receptor potential channel 4; test: TRPC4 inhibitor concentration-response, dose response, cell-based, HEK293 TRPC4/mu-opioid, DAMGO stimulus, Fluo-4 (AID 492994); assay type: functional
[5] = biological target: T2, Acyl-homoserine lactone acylase PvdQ (Pseudomonas aeruginosa (strain LESB58), UniProt Q9I194); test: P. aeruginosa PvdQ acylase inhibitors, dose response, biochemical, fluorescence, plate reader and imaging, cherry-picks (AID 493231)
T2 sequence (Q9I194 whole entry): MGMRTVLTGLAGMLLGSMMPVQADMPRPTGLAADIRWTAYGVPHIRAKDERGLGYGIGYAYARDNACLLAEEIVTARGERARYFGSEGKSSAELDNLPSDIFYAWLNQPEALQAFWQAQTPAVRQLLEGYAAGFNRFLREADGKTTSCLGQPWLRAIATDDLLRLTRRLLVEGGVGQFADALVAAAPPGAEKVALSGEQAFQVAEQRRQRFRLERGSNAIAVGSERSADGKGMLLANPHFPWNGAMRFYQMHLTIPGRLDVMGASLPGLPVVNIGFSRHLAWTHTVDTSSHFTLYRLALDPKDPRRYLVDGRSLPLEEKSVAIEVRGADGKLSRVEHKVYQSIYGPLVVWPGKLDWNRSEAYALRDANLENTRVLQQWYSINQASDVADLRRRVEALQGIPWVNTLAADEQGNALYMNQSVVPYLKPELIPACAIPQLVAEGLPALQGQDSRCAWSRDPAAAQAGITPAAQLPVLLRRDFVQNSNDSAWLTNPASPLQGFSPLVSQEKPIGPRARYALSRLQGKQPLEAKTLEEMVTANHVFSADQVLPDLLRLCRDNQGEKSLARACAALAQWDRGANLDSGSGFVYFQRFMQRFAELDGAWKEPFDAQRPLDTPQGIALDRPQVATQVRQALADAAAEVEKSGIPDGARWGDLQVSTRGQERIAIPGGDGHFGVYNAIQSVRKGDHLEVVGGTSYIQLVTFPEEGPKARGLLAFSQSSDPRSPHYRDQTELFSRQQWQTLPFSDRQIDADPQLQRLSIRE

[6] = test system: HeLa; test: HeLa cell cytotoxicity, dose response, cytotoxicity control, 48 h, plate reader, cherry-picks (AID 504942); assay type: functional, cell-based; conditions: Homo sapiens
[7] = test system: INS1; test: protection of INS-1E cells from cytokine death, dose response, ATP luminescence, dry powder (AID 488844); assay type: functional, cell-based; conditions: Rattus norvegicus
[8] = test system: INS1; test: protection from cytokine-induced mitochondrial depolarization, dose response, cell-based, INS-1E, JC-1 fluorescence ratio, dry powder (AID 488931); assay type: functional; conditions: Rattus norvegicus
[9] = biological target: T3, RNA-binding protein pos-1 (Caenorhabditis elegans, UniProt G5EF15); test: inhibitors of POS-1/mex-3 RNA binding, dose response, biochemical, fluorescence polarization (AID 1964);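 note: purified POS-1 fused to maltose binding protein made in E. coli; potency of compounds blocking POS-1 binding to fluorescent RNA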
T3 sequence (G5EF15 whole entry): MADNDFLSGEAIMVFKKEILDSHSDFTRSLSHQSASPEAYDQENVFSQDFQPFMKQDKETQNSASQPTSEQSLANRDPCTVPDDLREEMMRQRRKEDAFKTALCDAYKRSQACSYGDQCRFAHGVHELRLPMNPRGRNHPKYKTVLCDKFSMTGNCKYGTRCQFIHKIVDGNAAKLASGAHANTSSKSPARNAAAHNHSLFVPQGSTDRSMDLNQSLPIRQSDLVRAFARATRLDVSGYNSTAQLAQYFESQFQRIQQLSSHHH

[10] = biological target: T4, Zinc finger protein mex-5 (Caenorhabditis elegans, UniProt Q9XUB2); test: MEX-5/TCR-2 RNA interaction inhibitors, dose response, biochemical, C. elegans, fluorescence polarization (AID 1960)
T4 sequence (Q9XUB2 whole entry): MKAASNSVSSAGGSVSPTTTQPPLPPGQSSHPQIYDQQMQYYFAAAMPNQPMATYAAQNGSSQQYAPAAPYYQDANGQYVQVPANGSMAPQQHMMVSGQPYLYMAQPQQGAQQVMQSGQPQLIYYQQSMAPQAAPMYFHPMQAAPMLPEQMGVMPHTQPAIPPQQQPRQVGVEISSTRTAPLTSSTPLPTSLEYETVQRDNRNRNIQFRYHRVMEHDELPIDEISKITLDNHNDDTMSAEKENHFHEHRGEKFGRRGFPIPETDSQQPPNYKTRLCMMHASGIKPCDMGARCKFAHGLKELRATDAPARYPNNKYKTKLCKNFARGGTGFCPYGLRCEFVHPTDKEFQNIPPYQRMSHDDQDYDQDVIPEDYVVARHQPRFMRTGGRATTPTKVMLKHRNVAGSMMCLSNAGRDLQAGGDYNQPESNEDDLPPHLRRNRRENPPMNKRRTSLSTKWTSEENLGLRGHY

[11] = biological target: Ephrin type-A receptor 4 (Mus musculus, UniProt Q03137); test: inhibitors of EphA4 binding to KYL peptide, primary screen, biochemical, colorimetric, mouse EphA4 (AID 689); assay type: functional
Sequence of Ephrin type-A receptor 4 (Q03137 whole entry): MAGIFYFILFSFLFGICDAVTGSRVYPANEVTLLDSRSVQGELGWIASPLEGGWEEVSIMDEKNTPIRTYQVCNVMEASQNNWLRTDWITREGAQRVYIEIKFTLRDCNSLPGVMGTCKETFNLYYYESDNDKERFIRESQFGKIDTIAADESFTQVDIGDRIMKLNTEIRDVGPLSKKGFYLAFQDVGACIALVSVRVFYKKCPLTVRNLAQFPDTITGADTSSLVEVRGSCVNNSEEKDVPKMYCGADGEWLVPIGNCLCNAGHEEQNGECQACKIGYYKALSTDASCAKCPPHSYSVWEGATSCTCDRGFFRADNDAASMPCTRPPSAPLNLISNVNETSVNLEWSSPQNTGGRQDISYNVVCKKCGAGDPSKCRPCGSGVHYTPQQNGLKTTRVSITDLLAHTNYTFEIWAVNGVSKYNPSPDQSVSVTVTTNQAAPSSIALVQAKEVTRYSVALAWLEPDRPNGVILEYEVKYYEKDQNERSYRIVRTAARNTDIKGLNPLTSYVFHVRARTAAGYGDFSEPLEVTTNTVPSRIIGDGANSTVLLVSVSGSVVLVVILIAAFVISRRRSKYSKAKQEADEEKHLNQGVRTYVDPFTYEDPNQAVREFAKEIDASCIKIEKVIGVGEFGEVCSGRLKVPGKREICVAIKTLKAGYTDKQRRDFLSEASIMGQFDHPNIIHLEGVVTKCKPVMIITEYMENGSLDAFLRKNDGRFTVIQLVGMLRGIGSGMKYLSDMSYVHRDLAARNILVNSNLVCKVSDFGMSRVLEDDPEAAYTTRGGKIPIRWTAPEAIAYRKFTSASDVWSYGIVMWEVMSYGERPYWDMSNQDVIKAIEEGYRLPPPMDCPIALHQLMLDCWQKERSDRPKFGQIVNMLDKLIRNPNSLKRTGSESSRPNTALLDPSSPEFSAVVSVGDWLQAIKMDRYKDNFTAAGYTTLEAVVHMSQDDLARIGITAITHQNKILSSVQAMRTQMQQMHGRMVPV

[12] = biological target: Voltage-dependent T-type calcium channel subunit alpha-1H (Homo sapiens, UniProt O95180); assay type: functional;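 note: channel activity triggered by adding a high calcium stimulation buffer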
Sequence of Voltage-dependent T-type calcium channel subunit alpha-1H (O95180 whole entry): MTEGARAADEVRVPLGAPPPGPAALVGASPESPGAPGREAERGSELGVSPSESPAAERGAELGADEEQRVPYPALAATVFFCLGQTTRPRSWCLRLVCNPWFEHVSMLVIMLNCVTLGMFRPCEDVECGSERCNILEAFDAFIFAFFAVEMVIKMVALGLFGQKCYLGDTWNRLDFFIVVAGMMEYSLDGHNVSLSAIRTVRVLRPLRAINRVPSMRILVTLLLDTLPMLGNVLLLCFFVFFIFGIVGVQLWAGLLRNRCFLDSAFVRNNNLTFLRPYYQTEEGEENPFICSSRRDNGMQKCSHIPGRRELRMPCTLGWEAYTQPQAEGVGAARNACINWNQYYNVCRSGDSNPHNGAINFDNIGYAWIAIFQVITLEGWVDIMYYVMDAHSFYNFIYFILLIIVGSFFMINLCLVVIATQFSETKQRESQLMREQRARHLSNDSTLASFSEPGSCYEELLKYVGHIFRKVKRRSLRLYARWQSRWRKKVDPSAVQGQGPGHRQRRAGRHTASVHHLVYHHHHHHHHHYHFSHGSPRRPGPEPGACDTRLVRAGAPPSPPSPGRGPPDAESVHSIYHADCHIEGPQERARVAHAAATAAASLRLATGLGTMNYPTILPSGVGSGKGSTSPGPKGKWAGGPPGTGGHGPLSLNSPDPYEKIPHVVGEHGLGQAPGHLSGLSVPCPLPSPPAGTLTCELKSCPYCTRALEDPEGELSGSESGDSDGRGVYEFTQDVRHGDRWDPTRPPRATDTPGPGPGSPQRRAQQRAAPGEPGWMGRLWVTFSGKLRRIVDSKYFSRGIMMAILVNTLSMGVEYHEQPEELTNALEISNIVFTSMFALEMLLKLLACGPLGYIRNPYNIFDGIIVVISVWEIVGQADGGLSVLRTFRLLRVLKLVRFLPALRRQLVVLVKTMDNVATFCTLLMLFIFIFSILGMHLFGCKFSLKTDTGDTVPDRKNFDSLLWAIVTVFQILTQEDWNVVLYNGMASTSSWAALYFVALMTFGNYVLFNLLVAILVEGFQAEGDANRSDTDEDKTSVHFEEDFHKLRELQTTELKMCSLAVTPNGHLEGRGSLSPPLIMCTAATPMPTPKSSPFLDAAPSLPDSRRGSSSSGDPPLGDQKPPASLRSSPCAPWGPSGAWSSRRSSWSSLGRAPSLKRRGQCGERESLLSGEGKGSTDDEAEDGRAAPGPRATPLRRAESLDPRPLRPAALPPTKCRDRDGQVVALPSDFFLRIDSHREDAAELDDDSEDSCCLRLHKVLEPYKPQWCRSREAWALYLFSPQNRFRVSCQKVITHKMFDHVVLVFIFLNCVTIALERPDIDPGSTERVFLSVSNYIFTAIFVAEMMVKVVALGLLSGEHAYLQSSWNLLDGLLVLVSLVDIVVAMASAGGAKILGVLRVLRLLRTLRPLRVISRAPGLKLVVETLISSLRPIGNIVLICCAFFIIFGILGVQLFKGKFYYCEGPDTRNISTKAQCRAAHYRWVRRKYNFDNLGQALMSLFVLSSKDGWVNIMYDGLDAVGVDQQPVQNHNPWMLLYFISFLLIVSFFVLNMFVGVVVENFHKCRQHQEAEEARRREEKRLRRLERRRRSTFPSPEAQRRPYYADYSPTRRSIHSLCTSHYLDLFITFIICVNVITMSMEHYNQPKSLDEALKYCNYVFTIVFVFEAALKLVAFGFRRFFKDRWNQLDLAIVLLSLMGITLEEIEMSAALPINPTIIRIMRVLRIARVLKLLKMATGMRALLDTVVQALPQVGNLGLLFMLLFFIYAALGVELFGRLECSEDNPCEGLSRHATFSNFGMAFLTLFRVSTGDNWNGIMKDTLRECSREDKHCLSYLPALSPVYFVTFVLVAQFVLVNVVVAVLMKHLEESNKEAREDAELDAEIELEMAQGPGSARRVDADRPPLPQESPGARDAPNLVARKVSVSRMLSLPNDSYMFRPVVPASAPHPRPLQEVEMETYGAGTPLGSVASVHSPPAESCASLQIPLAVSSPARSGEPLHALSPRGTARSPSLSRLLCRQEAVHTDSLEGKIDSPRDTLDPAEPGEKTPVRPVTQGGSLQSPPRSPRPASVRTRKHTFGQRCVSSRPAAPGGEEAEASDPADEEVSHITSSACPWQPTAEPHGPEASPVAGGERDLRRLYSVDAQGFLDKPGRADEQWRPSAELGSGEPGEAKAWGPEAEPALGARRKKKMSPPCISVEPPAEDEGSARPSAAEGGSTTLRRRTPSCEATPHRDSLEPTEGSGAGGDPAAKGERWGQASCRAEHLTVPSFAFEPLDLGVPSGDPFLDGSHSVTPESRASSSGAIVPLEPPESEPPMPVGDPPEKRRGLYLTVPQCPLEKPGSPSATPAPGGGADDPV

[13] = biological target: T5, Endoribonuclease toxin MazF (Escherichia coli K-12, UniProt P0AE70); test: MazF toxin RNase activators, dose response, biochemical, fluorescence, single-stranded RNA substrate, uHTS hits (AID 588481); assay type: functional
T5 sequence (P0AE70 whole entry): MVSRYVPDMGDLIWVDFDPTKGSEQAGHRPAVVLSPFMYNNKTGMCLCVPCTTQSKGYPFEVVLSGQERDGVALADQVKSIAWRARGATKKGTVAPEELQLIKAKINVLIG

[14] = biological target: T5, Endoribonuclease toxin MazF; test: fluorescent RNA oligo signal without MazF, dose response, counter-screen for MazEF activator project, biochemical, fluorescence, single-stranded RNase substrate (AID 588502); assay type: functional
[15] = biological target: T6, Corticotropin-releasing factor receptor 2/Corticotropin-releasing factor-binding protein (Homo sapiens, UniProt P24387+Q13324); test: activators of CRF receptor 2 with binding protein – uHTS hits, confirmation (AID 602473); assay type: functional; conditions: read-out: EC50_Mean
T6 sequence (Q13324 whole entry): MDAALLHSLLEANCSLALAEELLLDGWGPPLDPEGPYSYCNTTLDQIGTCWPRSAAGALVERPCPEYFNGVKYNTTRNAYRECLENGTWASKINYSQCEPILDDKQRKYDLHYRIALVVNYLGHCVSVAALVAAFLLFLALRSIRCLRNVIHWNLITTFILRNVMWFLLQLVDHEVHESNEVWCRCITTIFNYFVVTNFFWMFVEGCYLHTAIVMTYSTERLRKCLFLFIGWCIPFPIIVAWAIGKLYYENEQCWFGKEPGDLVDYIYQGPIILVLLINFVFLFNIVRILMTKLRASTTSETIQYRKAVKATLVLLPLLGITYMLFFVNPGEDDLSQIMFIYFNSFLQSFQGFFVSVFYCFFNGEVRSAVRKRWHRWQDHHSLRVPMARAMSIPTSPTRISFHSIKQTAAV
T6 sequence (P24387 whole entry): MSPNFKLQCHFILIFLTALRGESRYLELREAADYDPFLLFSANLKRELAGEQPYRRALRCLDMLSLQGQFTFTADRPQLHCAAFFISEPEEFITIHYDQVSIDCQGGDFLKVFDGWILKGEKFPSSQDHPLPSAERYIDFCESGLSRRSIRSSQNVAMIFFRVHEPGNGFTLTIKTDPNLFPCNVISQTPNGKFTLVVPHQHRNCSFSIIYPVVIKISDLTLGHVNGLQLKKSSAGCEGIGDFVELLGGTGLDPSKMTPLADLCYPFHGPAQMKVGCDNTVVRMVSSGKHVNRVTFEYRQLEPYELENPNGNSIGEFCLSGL

Structure (SMILES): Cc1cc(N2CCC(C)CC2)nc2ccccc12
- IC50 [1]: 3.14 µM (active)
- IC50 [2]: 20.7 µM (active)
- IC50 [3]: 5.47 µM (active)
- IC50 [4]: 7.24 µM (active)

Structure (SMILES): Cn1cccc1C(=O)OCc1cc(-c2ccco2)on1
- AC50 [5]: 11.1 µM (active)
- AC50 [6]: > 380 µM (inactive)

Structure (SMILES): COc1ccc(S(=O)(=O)N(C)C[C@@H]2Oc3c(NC(=O)Nc4cccc5ccccc45)cccc3C(=O)N(C(C)C)C[C@H]2C)cc1
- AC50 [7]: 63.7 µM (active)
- AC50 [8]: 24 µM (active)

Structure (SMILES): CC(C)(C)C(=O)c1sc2nc(-c3cccs3)cc(C(F)(F)F)c2c1N
- EC50 [9]: > 300 µM (not active)
- EC50 [10]: > 300 µM (inconclusive)
- IC50 [11]: 9.9 µM (active)
- EC50 [12]: 2.59 µM (active)
- EC50 [13]: > 99 µM (inactive)
- EC50 [14]: > 99 µM (inactive)
- EC50 [15]: 18 µM (active)
